In patent US7473682B2, “Angiogenic peptides and uses thereof” (Ramot at Tel Aviv University Ltd., priority 2003, dated 2009):

Test system: ECs (HUVECs)
Assay: FACS binding of FITC-labeled synthetic peptides to ECs
Parameters: species or system human
Conditions: 6 μg FITC labeled peptide, 10^5 ECs, 2 hours
Description: Fluorescein labeling of synthetic peptides—Fluorescein Isothiocyanate (FTIC, Pierce, Rockford, Ill.) is an amino-reactive probe that reacts in an alkine environment with primary amines to form a stable fluorescent derivative. 12.5 μl of FITC (10 mg/ml) were added per 1 mg of peptide diluted in 0.5 M bicarbonate buffer (pH 9.5) and agitated in the dark for 2 hours. 0.1 ml of 1.5 M hydroxilamine was then added per 1 ml of reaction mixture and agitated for an additional 30 minutes at room temperature. Unbound FITC was removed by dialysis in the presence of PBS.
Peptide binding to ECs—ECs were cultured in M199 supplemented with 10% FCS. For peptide binding assays, the cells were trypsinized and 10^5 cells were suspended in PBS supplemented with 5% FCS and 0.1% sodium azide. Cells were incubated for 2 hours (on ice, in the dark) in the presence of 1-6 μg of FITC-labeled peptides, following which the stained cells were washed twice with PBS. Samples were analyzed by FACS (FACScan, Becton Dickinson, San Jose, Calif., USA). For control, 0.5×10^6 of PBLs were utilized.
FACS analysis of peptide binding to ECs with and without hypoxia treatment—ECs were exposed to hypoxia conditions and then prepared for FACS analysis as described in Example 3, hereinabove. […] Samples were analyzed by Fluorescence Activated Cell Sorter (FACScan Beckton Dickinson, Calif., USA).

## LLADTTHHRPWT (Phage displayed peptide) [LT]
  Binding to ECs exposed to hypoxia compared with normoxia: increased binding

## SAHGTSTGVPWP (Phage displayed peptide)
  Binding to ECs exposed to hypoxia compared with normoxia: increased binding
